Experimental data published in patent publication US7491721B2, “Antimycobacterial pharmaceutical composition” (priority 2004, dated 2009).
Values after ≈ are worked out from the molar mass of the structure shown. Where two headings read alike, the source gives them in different places.

Experiments:
M. tuberculosis isolates = assay: microbe, parasite or virus in culture; type: cell-based, Mycobacterium tuberculosis; details: for MIC50 / MIC90: Mycobacterium tuberculosis; for MIC50: read-out: MIC against M. tuberculosis isolates, MIC50; for MIC90: read-out: MIC against M. tuberculosis isolates, MIC90
[1] = tested on: sensitive/resistant strains of M. tuberculosis; assay: Murine model of pulmonary tuberculosis, text statements not split by strain; type: in vivo, Mycobacterium tuberculosis; details: monotherapy
resistant strain of MTB = type: in vivo, Mycobacterium tuberculosis; details: for dose giving 2 log reduction in the organs: animals infected with resistant strains
[2] = combination study, one month, doses mg/kg: (I) 25.0 where present, INH 25.0, RIF 20.0, PYR 150.0, ETH 100.0
[3] = combination study, three months, doses mg/kg: (I) 25.0 where present, INH 25.0, RIF 20.0, PYR 150.0, ETH 100.0
[4] = combination study, two months, doses mg/kg: (I) 25.0 where present, INH 25.0, RIF 20.0, PYR 150.0, ETH 100.0
[5] = monotherapy 12.5 mg/kg, 8 Weeks Treatment (two months)
[6] = monotherapy 12.5 mg/kg, 12 Weeks Treatment (three months)
[7] = monotherapy 12.5 mg/kg, one month of treatment
[8] = monotherapy 25 mg/kg, 8 Weeks Treatment (two months)
[9] = monotherapy 25 mg/kg, 12 Weeks Treatment (three months)
[10] = monotherapy 25 mg/kg, one month of treatment
[11] = monotherapy 50 mg/kg, 8 Weeks Treatment (two months)
[12] = monotherapy 50 mg/kg, 12 Weeks Treatment (three months)
[13] = monotherapy 50 mg/kg, one month of treatment

| Compound | MIC50 (M. tuberculosis isolates) | MIC90 (M. tuberculosis isolates) | dose giving 2 log reduction in the organs (resistant strain of MTB) | Mean Log10CFU in organs of mice infected with resistant strain of MTB, Lung (resistant strain of MTB; [2]) | Mean Log10CFU in organs of mice infected with resistant strain of MTB, Spleen (resistant strain of MTB; [2]) | Mean Log10CFU in organs of mice infected with resistant strain of MTB, Lung (resistant strain of MTB; [3]) | Mean Log10CFU in organs of mice infected with resistant strain of MTB, Spleen (resistant strain of MTB; [3]) | Mean Log10CFU in organs of mice infected with resistant strain of MTB, Lung (resistant strain of MTB; [4]) | Mean Log10CFU in organs of mice infected with resistant strain of MTB, Spleen (resistant strain of MTB; [4]) | Mean Log10CFU in organs of mice infected with resistant strain of MTB, Lung (resistant strain of MTB; [5]) | Mean Log10CFU in organs of mice infected with resistant strain of MTB, Spleen (resistant strain of MTB; [5]) | Mean Log10CFU in organs of mice infected with resistant strain of MTB, Lung (resistant strain of MTB; [6]) | Mean Log10CFU in organs of mice infected with resistant strain of MTB, Spleen (resistant strain of MTB; [6]) | Mean Log10CFU in organs of mice infected with resistant strain of MTB, Lung (resistant strain of MTB; [7]) | Mean Log10CFU in organs of mice infected with resistant strain of MTB, Spleen (resistant strain of MTB; [7]) | Mean Log10CFU in organs of mice infected with resistant strain of MTB, Lung (resistant strain of MTB; [8]) | Mean Log10CFU in organs of mice infected with resistant strain of MTB, Spleen (resistant strain of MTB; [8]) | Mean Log10CFU in organs of mice infected with resistant strain of MTB, Lung (resistant strain of MTB; [9]) | Mean Log10CFU in organs of mice infected with resistant strain of MTB, Spleen (resistant strain of MTB; [9]) | Mean Log10CFU in organs of mice infected with resistant strain of MTB, Lung (resistant strain of MTB; [10]) | other results |
| --- | --- | --- | --- | --- | --- | --- | --- | --- | --- | --- | --- | --- | --- | --- | --- | --- | --- | --- | --- | --- | --- |
| Cc1c(CN2CCN(c3cccc(C(F)(F)F)c3)CC2)cc(-c2ccccc2)n1NC(=O)c1ccncc1 [Compound of formula (I)] | 0.12 µg/mL | 0.25 µg/mL | 12.5 mg/kg | 2.86 ± 0.37 Log10CFU | 2.25 ± 0.18 Log10CFU | 1.30 ± 1.02 Log10CFU | 1.64 ± 1.12 Log10CFU | 2.37 ± 0.81 Log10CFU | 2.52 ± 0.48 Log10CFU | 3.32 ± 0.6 Log10CFU | 3.1 ± 1.13 Log10CFU | 2.51 ± 0.18 Log10CFU | 2.6 ± 0.34 Log10CFU | 2.97 ± 0.53 Log10CFU | 3.02 ± 0.22 Log10CFU | 2.83 ± 0.66 Log10CFU | 2.61 ± 0.56 Log10CFU | 1.86 ± 0.97 Log10CFU | 1.79 ± 0.92 Log10CFU | 2.70 ± 0.36 Log10CFU | MIC against M. tuberculosis isolates, Range (M. tuberculosis isolates; approximately 200 sensitive and resistant clinical isolates): 0.12 to 0.5 µg/mL; reduction in viable bacilli in the target organs as compared to control animals ([1]; one month (Table III)): > 2 log; animals with complete absence of mycobacterium ([1]; treated for three months): 33%; Mean Log10CFU in organs of mice infected with resistant strain of MTB, Spleen (resistant strain of MTB; [10]): 2.54 ± 0.20 Log10CFU; Mean Log10CFU in organs of mice infected with resistant strain of MTB, Lung (resistant strain of MTB; [11]): 2.51 ± 0.72 Log10CFU; Mean Log10CFU in organs of mice infected with resistant strain of MTB, Spleen (resistant strain of MTB; [11]): 2.37 ± 0.61 Log10CFU; Mean Log10CFU in organs of mice infected with resistant strain of MTB, Lung (resistant strain of MTB; [12]): 1.79 ± 0.92 Log10CFU; Mean Log10CFU in organs of mice infected with resistant strain of MTB, Spleen (resistant strain of MTB; [12]): 1.69 ± 0.88 Log10CFU; Mean Log10CFU in organs of mice infected with resistant strain of MTB, Lung (resistant strain of MTB; [13]): 2.59 ± 0.22 Log10CFU; Mean Log10CFU in organs of mice infected with resistant strain of MTB, Spleen (resistant strain of MTB; [13]): 2.32 ± 0.39 Log10CFU |
| NNC(=O)c1ccncc1 [Isoniazid] | 4 µg/mL (≈ 29.2 µM) | > 16 µg/mL | > 50 mg/kg | 5.23 ± 0.27 Log10CFU | 4.61 ± 0.43 Log10CFU | 5.37 ± 0.35 Log10CFU | 5.19 ± 0.65 Log10CFU | 5.15 ± 0.42 Log10CFU | 5.36 ± 0.84 Log10CFU | 6.01 ± 0.9 Log10CFU | 5.88 ± 0.41 Log10CFU | 5.1 ± 0.7 Log10CFU | 5.72 ± 0.17 Log10CFU | 5.47 ± 0.54 Log10CFU | 5.01 ± 0.45 Log10CFU | 5.91 ± 0.35 Log10CFU | 5.7 ± 0.34 Log10CFU | 4.79 ± 0.55 Log10CFU | 5.62 ± 0.63 Log10CFU | 5.34 ± 0.34 Log10CFU | Mean Log10CFU in organs of mice infected with resistant strain of MTB, Spleen (resistant strain of MTB; [10]): 4.97 ± 0.52 Log10CFU; Mean Log10CFU in organs of mice infected with resistant strain of MTB, Lung (resistant strain of MTB; [11]): 5.42 ± 0.74 Log10CFU; Mean Log10CFU in organs of mice infected with resistant strain of MTB, Spleen (resistant strain of MTB; [11]): 5.1 ± 0.61 Log10CFU; Mean Log10CFU in organs of mice infected with resistant strain of MTB, Lung (resistant strain of MTB; [12]): 4.76 ± 0.20 Log10CFU; Mean Log10CFU in organs of mice infected with resistant strain of MTB, Spleen (resistant strain of MTB; [12]): 5.64 ± 066 Log10CFU; Mean Log10CFU in organs of mice infected with resistant strain of MTB, Lung (resistant strain of MTB; [13]): 4.77 ± 0.61 Log10CFU; Mean Log10CFU in organs of mice infected with resistant strain of MTB, Spleen (resistant strain of MTB; [13]): 4.83 ± 0.68 Log10CFU |
| CO[C@H]1/C=C/O[C@@]2(C)Oc3c(C)c(O)c4c(O)c(c(/C=N/N5CCN(C)CC5)c(O)c4c3C2=O)NC(=O)/C(C)=C\C=C\[C@H](C)[C@H](O)[C@@H](C)[C@@H](O)[C@@H](C)[C@H](OC(C)=O)[C@@H]1C [Rifampicin] | 4 µg/mL (≈ 4.86 µM) | > 16 µg/mL |  | 3.05 ± 0.43 Log10CFU | 2.44 ± 0.32 Log10CFU | 0.94 ± 1.04 Log10CFU | 1.78 ± 1.38 Log10CFU | 2.45 ± 1.15 Log10CFU | 2.60 ± 0.59 Log10CFU |  |  |  |  |  |  |  |  |  |  |  |  |
